pIC50, pKd: −log10 of the molar value. Where a name gives a salt, the structure may show the parent alone.
What was measured:
human RORγt LBD = biological target: T1, human RORγt LBD (Homo sapiens, UniProt P51449); experiment: RORγt reporter assay (GAL4-RORγt LBD luciferase in HEK293T cells); assay type: cell-based; conditions: for inhibition at 6 µM: HEK-293T, read-out: RORγt reporter Assay, % inhibition @ 6 μM, HEK293T cells, 6 μM compound; for pIC50 / RORγt reporter Assay, % inhibition @ 6 μM: HEK293T cells; for pIC50: 24 hours compound treatment; for RORγt reporter Assay, % inhibition @ 6 μM: 6 μM compound
T1 construct: expressed in transfected cells
T1 sequence (P51449 258-518): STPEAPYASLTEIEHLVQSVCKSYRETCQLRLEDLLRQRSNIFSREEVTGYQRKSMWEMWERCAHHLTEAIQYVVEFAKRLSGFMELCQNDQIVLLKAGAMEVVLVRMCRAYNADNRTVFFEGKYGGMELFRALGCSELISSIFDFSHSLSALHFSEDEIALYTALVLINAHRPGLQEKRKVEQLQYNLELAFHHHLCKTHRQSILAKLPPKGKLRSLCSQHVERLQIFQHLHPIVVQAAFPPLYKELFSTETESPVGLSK
Text: A reporter assay was used to test functional activity of RORγt modulatory compounds on transcriptional activation driven by the RORγt LBD. Cells used in the assay were co-transfected with two constructs. The first construct, pBIND-RORγt LBD, contained the wild type human RORγt LBD fused to the DNA binding domain of the GAL4 protein. The second construct, pGL4.31 (Promega Cat no. C935A), contained multiple GAL4 responsive DNA elements upstream of firefly luciferase. […] The mutant construct was called pBIND-RORγt-AF2.
The pBIND vector contains the GAL4 DNA Binding Domain (GAL4 DBD) and the renilla luciferase gene under control of the SV40 promoter. Renilla luciferase expression serves as a control for transfection efficiency and cell viability.
The reporter assay was performed by transiently transfecting HEK293T cells with 5 ng of pBIND-RORγt LBD or pBIND-RORγt LBD-AF2 and 5 μg pGL4.31 (Promega Cat no. C935A) using Fugene 6 (Invitrogen Cat no. E2691) at a 1:6 ratio of DNA:Fugene 6 in a T-75 flask in which cells were at least 80% confluent. Twenty four hours after bulk transfection, cells were plated into 96-well plates at 50,000 cells/well in phenol-red free DMEM containing 5% Lipid Reduced FCS and Pen/Strep. Six hours after plating, cells were treated with compounds for 24 hours. Media was removed and cells were lysed with 50 μL 1× Glo Lysis Buffer (Promega). Dual Glo Luciferase Reagent (50 μL/well) was then added and firefly luciferase luminescence was read on an Envision after a ten minute incubation. Finally, Stop and Glo reagent (50 μL/well) was added and renilla luciferase luminescence was read on an Envision after a ten minute incubation. To calculate the effect of compounds on RORγt activity, the ratio of firefly to renilla luciferase was determined and plotted against compound concentration. Agonist compounds increase RORγt-driven luciferase expression, and antagonist or inverse agonist compounds decrease luciferase expression.

[1] = biological target: T2, human RORγt ligand binding domain (RORγt LBD) (Homo sapiens, UniProt P51449); experiment: RORγt ThermoFluor assay (thermal shift, ligand binding affinity); conditions: estimated from concentration response of thermal shift
T2 construct: His-tag (N); TurboTEV protease cleavage site (ENLYFQG) (N); made in house; host or cells: E. coli (pHIS1, modified pET vector)
T2 sequence (P51449 with tags, fused parts or gaps): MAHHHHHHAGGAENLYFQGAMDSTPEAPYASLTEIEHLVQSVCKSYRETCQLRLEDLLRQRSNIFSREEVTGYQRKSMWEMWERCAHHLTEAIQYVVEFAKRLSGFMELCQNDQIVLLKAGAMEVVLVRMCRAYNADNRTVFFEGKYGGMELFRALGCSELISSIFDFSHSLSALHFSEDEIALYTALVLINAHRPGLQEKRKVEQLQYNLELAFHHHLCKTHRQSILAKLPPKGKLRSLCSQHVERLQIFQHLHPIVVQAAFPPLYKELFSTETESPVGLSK
Experimental: This approach is applicable to a wide variety of systems, and rigorous in theoretical interpretation through quantitation of equilibrium binding constants (KD).
The shift in the melting point described as a ΔTm is proportional to the concentration and affinity of the ligand.
RORγt ThermoFluor® Assay Construct
Protein and compound solutions are dispensed into black 384-well polypropylene PCR microplates (Abgene) and overlayed with silicone oil (1 μL Fluka, type DC 200) to prevent evaporation.
Fluorescence was measured by continuous illumination with UV light (Hamamatsu LC6) supplied via fiber optic and filtered through a band-pass filter (380-400 nm; >6 OD cutoff). Fluorescence emission of the entire 384-well plate was detected by measuring light intensity using a CCD camera (Sensys, Roper Scientific) filtered to detect 500±25 nm, resulting in simultaneous and independent readings of all 384 wells. Images were collected at each temperature, and the sum of the pixel intensity in a given area of the assay plate was recorded versus temperature. Reference wells contained RORγt without compounds, and the assay conditions were as follows: • 0.065 mg/mL RORγt • 60 μM 1,8-ANS • 100 mM Hepes, pH 7.0 • 10 mM NaCl • 2.5 mM GSH • 0.002% Tween-20
Project compounds were arranged in a pre-dosed mother plate (Greiner Bio-one) wherein compounds are serially diluted in 100% DMSO by 1:2 from a high concentration of 10 mM over 12 columns within a series (column 12 is a reference well containing DMSO, no compound).
The compounds were robotically dispensed directly into assay plates (1×=[…]) using a Hummingbird capillary liquid handling instrument (Digilab). Following compound dispense, protein and dye in buffer was added to achieve the final assay volume of 3 μL, followed by 1 μL of silicone oil.

inhibition at 6 µM (human RORγt LBD) [%] | pIC50 (human RORγt LBD) | pKd [1] | RORγt reporter Assay, % inhibition @ 6 μM (human RORγt LBD) [%] | Structure (SMILES)
103 | – | – | – | Cn1cncc1C(O)(c1ccc(C(F)(F)F)nc1)c1ccc2nc(C(F)(F)F)c(-c3ccccc3)c(C#N)c2c1 (racemic) [Example 173a, 6-(Hydroxy(1-methyl-1H-imidazol-5-yl)(6-(trifluoromethyl)pyridin-3-yl)methyl)-3-phenyl-2-(trifluoromethyl)quinoline-4-carbonitrile•TFA]
101 | 6.85 | 7.80 | – | CC(=O)N1CCC(C(O)(c2ccc3nc(C(F)(F)F)c(-c4ccccc4)c(C(F)(F)F)c3c2)c2cncn2C)CC1 (racemic) [Example 181a, 1-(4-(Hydroxy(1-methyl-1H-imidazol-5-yl)(3-phenyl-2,4-bis(trifluoromethyl)quinolin-6-yl)methyl)piperidin-1-yl)ethanone]
– | < 5.22 | 8.03 | – | COc1nc2c(C)cc(C(O)(c3ccc(C(F)(F)F)nc3)c3cncn3C)cc2c(Cl)c1-c1ccc(OC(F)(F)F)cc1 (racemic) [Example 183a, (4-Chloro-2-methoxy-8-methyl-3-(4-(trifluoromethoxy)phenyl)quinolin-6-yl)(1-methyl-1H-imidazol-5-yl)(6-(trifluoromethyl)pyridin-3-yl)methanol•TFA]
100 | 6.70 | 7.13 | – | Cn1cncc1C(O)(c1ccc2nc(C(F)(F)F)c(-c3ccccc3)c(C(F)(F)F)c2c1)c1ccccn1 (racemic) [Example 185a, (1-Methyl-1H-imidazol-5-yl)(3-phenyl-2,4-bis(trifluoromethyl)quinolin-6-yl)(pyridin-2-yl)methanol]
– | 5.82 | 5.46 | 75 | Cn1cncc1C(O)(c1ccc(Cl)cc1)c1ccc2nc(Cl)c(-c3ccccc3Cl)c(Cl)c2c1 (single isomer, unassigned) [Example 153d, (4-Chlorophenyl)(2,4-dichloro-3-(2-chlorophenyl)quinolin-6-yl)(1-methyl-1H-imidazol-5-yl)methanol]
100 | – | – | – | Cn1cncc1C(O)(c1ccc(C(F)(F)F)nc1)c1ccc2nc(C(F)(F)F)c(-c3ccccc3)c(C#N)c2c1 (single isomer, unassigned) [Example 173b, 6-(Hydroxy(1-methyl-1H-imidazol-5-yl)(6-(trifluoromethyl)pyridin-3-yl)methyl)-3-phenyl-2-(trifluoromethyl)quinoline-4-carbonitrile]
76 | 5.68 | 5.09 | – | Cc1cc(C(O)(c2ccc(F)cc2)c2cncn2C)cc2c(C#N)c(-c3cccc(F)c3)c(C#N)nc12 (single isomer, unassigned) [Example 175b, 3-(3-Fluorophenyl)-6-((4-fluorophenyl)(hydroxy)(1-methyl-1H-imidazol-5-yl)methyl)-8-methylquinoline-2,4-dicarbonitrile]
94 | 5.82 | 5.47 | – | Cc1cc(C(O)(c2ccc(C(F)(F)F)nc2)c2cncn2C)cc2c(C#N)c(-c3cccc(F)c3)c(C#N)nc12 (single isomer, unassigned) [Example 176b, 3-(3-Fluorophenyl)-6-(hydroxy(1-methyl-1H-imidazol-5-yl)(6-(trifluoromethyl)pyridin-3-yl)methyl)-8-methylquinoline-2,4-dicarbonitrile]
– | 6.21 | 4.68 | 72 | COc1nc2c(C)cc(C(O)(c3ccc(F)cc3)c3cncn3C)cc2c(Cl)c1-c1cccc(F)c1 (single isomer, unassigned) [Example 178b, (4-Chloro-3-(3-fluorophenyl)-2-methoxy-8-methylquinolin-6-yl)(4-fluorophenyl)(1-methyl-1H-imidazol-5-yl)methanol]
98 | 5.89 | 5.18 | – | COc1nc2c(C)cc(C(O)(c3ccc(C(F)(F)F)nc3)c3cncn3C)cc2c(C#N)c1-c1cccc(F)c1 (single isomer, unassigned) [Example 179b, 3-(3-Fluorophenyl)-6-(hydroxy(1-methyl-1H-imidazol-5-yl)(6-(trifluoromethyl)pyridin-3-yl)methyl)-2-methoxy-8-methylquinoline-4-carbonitrile]
99 | 5.52 | 5.60 | – | Cc1cc(C(O)(c2ccc(C(F)(F)F)nc2)c2cncn2C)cc2c(C#N)c(-c3ccc(F)cc3)c(C#N)nc12 (single isomer, unassigned) [Example 184b, 3-(4-Fluorophenyl)-6-(hydroxy(1-methyl-1H-imidazol-5-yl)(6-(trifluoromethyl)pyridin-3-yl)methyl)-8-methylquinoline-2,4-dicarbonitrile]
– | 6.09 | 6.12 | 91 | Cn1cncc1C(O)(c1ccc2nc(C(F)(F)F)c(-c3ccccc3)c(C(F)(F)F)c2c1)c1ccccn1 (single isomer, unassigned) [Example 185c, (1-Methyl-1H-imidazol-5-yl)(3-phenyl-2,4-bis(trifluoromethyl)quinolin-6-yl)(pyridin-2-yl)methanol]
97 | 5.49 | 5.48 | – | Cc1nn(C)c(C)c1C(O)(c1ccccc1)c1ccc2nc(Cl)c(-c3ccccc3)c(Cl)c2c1 (centres unmarked) [Example 4, (2,4-Dichloro-3-phenylquinolin-6-yl)(phenyl)(1,3,5-trimethyl-1H-pyrazol-4-yl)methanol]
79 | 6.42 | 4.68 | – | CC(C)(C)OC(=O)N1CCCC(C(O)(c2cccnc2)c2ccc3nc(Cl)c(-c4ccccc4)c(Cl)c3c2)C1 (centres unmarked) [Example 5, tert-Butyl 3-((2,4-Dichloro-3-phenylquinolin-6-yl)(hydroxy)(pyridin-3-yl)methyl)piperidine-1-carboxylate]
83 | 5.92 | 5.28 | – | Cc1nn(C)c(C)c1C(O)(c1ccccc1)c1ccc2nc(Cl)c(-c3ccccc3Cl)c(Cl)c2c1 (centres unmarked) [Example 7, (2,4-Dichloro-3-(2-chlorophenyl)quinolin-6-yl)(phenyl)(1,3,5-trimethyl-1H-pyrazol-4-yl)methanol]
70 | 5.21 | 5.15 | – | COc1nc2ccc(C(O)(c3ccc(Cl)cc3)c3cncn3C)cc2cc1-c1ccccc1 (centres unmarked) [Example 9]
– | – | 5.55 | – | Cc1ccc(C(O)(c2cc[nH]c2)c2cc(C)c3nc(Cl)c(-c4ccccc4)c(Cl)c3c2)cn1 (centres unmarked) [Example 157, (2,4-Dichloro-8-methyl-3-phenylquinolin-6-yl)(6-methylpyridin-3-yl)(1H-pyrrol-3-yl)methanol•TFA]

Source: US9309222B2, “Phenyl linked quinolinyl modulators of RORγt” (Janssen Pharmaceutica NV, priority 2012, dated 2016)
